This test deals with WDR5 (Homo sapiens (Human), UniProt P61964). Kind of test: TR-FRET binding assay, displacement of 10mer-Thr-FAM probe from His-tagged WDR5. The conditions noted are these: Inhibition of WDR5 by TR-FRET assay. As to the method:
The LanthaScreenTM Elite Tb-anti-HIS Antibody from ThermoFisher Scientific was used for this purpose. […] The ratio of the 520 and 495 signals are then utilized to generate a dose-response curve to calculate an IC50 value. […] WDR[…] tag protein is used at 2 nM.
(In general: TR-FRET usually uses a lanthanide donor and a delayed reading to cut background.)
One may read the Ki as a dissociation constant, usually derived from enzyme kinetics or from competition with a known ligand. Regarding `Cc1cc(-c2cc(CNC(=N)N)cc(C(=O)NCc3ccc(Cl)cn3)c2)ccn1` [Example 103, N-((5-Chloropyridin-2-yl)methyl)-3-(guanidinomethyl)-5-(2-methylpyridin-4-yl)benzamide], the Ki turned out to be 3.3 nM.
`Cc1ccc(CNC(=O)c2cc(CNC(=N)N)cc(-c3ccnc(C)c3)c2)cn1` [Example 104, 3-(guanidinomethyl)-N-((6-methylpyridin-3-yl)methyl)-5-(2-methylpyridin-4-yl)benzamide] returned a Ki of 12 nM.
In the case of `CCn1cc(-c2cc(CNC(=N)CC3CC3)cc(C(=O)N[C@H](c3ccc(F)c(C)c3)C3CC3)c2)c(C(F)(F)F)n1` [Example 107, (S)—N-(Cyclopropyl(4-fluoro-3-methylphenyl)methyl)-3-((2-cyclopropylacetimidamido)methyl)-5-(1-ethyl-3-(trifluoromethyl)-1H-pyrazol-4-yl)benzamide], the Ki came to 0.15 nM.
On to `CCn1cc(-c2cc(CNC(=N)C3CCOC3)cc(C(=O)N[C@H](c3ccc(F)c(C)c3)C3CC3)c2)c(C(F)(F)F)n1` (stereo partly drawn) [Example 108, N—((S)-Cyclopropyl(4-fluoro-3-methylphenyl)methyl)-3-(1-ethyl-3-(trifluoromethyl)-1H-pyrazol-4-yl)-5-((tetrahydrofuran-3-carboximidamido)methyl)benzamide], for which the affinity corresponds to a Ki of 2 nM.
The compound `CCn1cc(-c2cc(CNC(=N)C3(C)CC3)cc(C(=O)N[C@H](c3ccc(F)c(C)c3)C3CC3)c2)c(C(F)(F)F)n1` [Example 109, (S)—N-(Cyclopropyl(4-fluoro-3-methylphenyl)methyl)-3-(1-ethyl-3-(trifluoromethyl)-1H-pyrazol-4-yl)-5-((1-methylcyclopropane-1-carboximidamido)methyl)benzamide] returned a Ki of 0.13 nM.
In turn, `CC1(NC(=O)c2cc(Cn3ccnc3)cc(-c3ccc(F)cc3Cl)c2)CCCC1` [Example 138, 5-((1H-Imidazol-1-yl)methyl)-2′-chloro-4′-fluoro-N-(1-methylcyclopentyl)-[1,1′-biphenyl]-3-carboxamide] showed a Ki of 50 nM.
Turning to `Cc1nc(F)ccc1-c1cc(Cn2ccnc2C2CC2)cc(C(=O)NCc2ccc(Cl)c(Cl)c2)c1` [Example 139, 3-((2-Cyclopropyl-1H-imidazol-1-yl)methyl)-N-(3,4-dichlorobenzyl)-5-(6-fluoro-2-methylpyridin-3-yl)benzamide], the affinity, expressed as Ki, was 1.6 nM. Compared with the last compound, the Ki is about 31-fold lower.
Take `COc1cc(CN(C)C(=O)c2cc(Cn3ccnc3)cc(-c3ccc(F)nc3C)c2)cc(OC)c1` [Example 140, 3-((1H-Imidazol-1-yl)methyl)-N-(3,5-dimethoxybenzyl)-5-(6-fluoro-2-methylpyridin-3-yl)-N-methylbenzamide]: affinity was put at a Ki of 95 nM.
In turn, `O=C(NCc1ccc(Cl)c(Cl)c1)c1cc(Cn2ccnc2)cc(C(F)(F)F)c1` [Example 141, 3-((1H-Imidazol-1-yl)methyl)-N-(3,4-dichlorobenzyl)-5-(trifluoromethyl)benzamide] had an inhibition constant Ki of 10 nM. Against the preceding compound, the Ki is about 9.5-fold lower.
`O=C(NCc1ccc(Cl)c(Cl)c1)c1cc(Cn2ccnc2)cc(OC2CCC2)c1` [Example 142, 3-((1H-Imidazol-1-yl)methyl)-5-cyclobutoxy-N-(3,4-dichlorobenzyl)benzamide] had a Ki of 0.59 nM.
The result for `Cc1nccn1Cc1cc(OC2CCC2)cc(C(=O)NCc2ccc(Cl)c(Cl)c2)c1` [Example 143, 3-Cyclobutoxy-N-(3,4-dichlorobenzyl)-5-((2-methyl-1H-imidazol-1-yl)methyl)benzamide] reads 0.43 nM; that for `Cc1ccnc(C(NC(=O)c2cc(Cn3ccnc3C)cc(N3CCOCC3)c2)C2CC2)c1` (stereo not shown) [Example 144, N-(cyclopropyl(4-methylpyridin-2-yl)methyl)-3-((2-methyl-1H-imidazol-1-yl)methyl)-5-morpholinobenzamide], 4.77 nM.
`COc1cc(CNC(=O)c2cc(Cn3ccnc3)cc(-c3ccc(=O)[nH]c3)c2)cc(OC)c1` [Example 145, 3-((1H-Imidazol-1-yl)methyl)-N-(3,5-dimethoxybenzyl)-5-(6-oxo-1,6-dihydropyridin-3-yl)benzamide] came in with a Ki of 22 nM.

The values are drawn from patent publication US10807959B2, “WDR5-MLL1 inhibitors and modulators” (Vanderbilt University, priority 2018, dated 2020).
